Values after ≈ are worked out from the molar mass of the structure shown.
Key:
physchem = conditions: water
[1] = system: carrageenin-induced rat foot edema; assay: standard carrageenin-induced rat foot edema test, oral; type: in vivo; conditions: 32 mg./kg. oral (gavage), carrageenin-injected hind paw, 3 h after carrageenin, vs vehicle control, read-out: % Inhibition of edema formation
Description: In this test, anti-inflammatory activity is determined as the percent inhibition of edema formation in the hind paw of male albino rats (weighing 150-190 g.) in response to a sub-plantar injection of carrageenin. The carrageenin is injected as a 1% aqueous suspension (0.05 ml.) one hour after oral administration of the drug, which is normally given in the form of an aqueous solution. Edema formation is then assessed by measuring the volume of the injected paw initially as well as three hours after the carrageenin injection. The increase in volume three hours after carrageenin injection constitutes the individual response. Compounds are considered active if the difference in response between the drug-treated animals (six rats/group) and a control group receiving the vehicle alone is significant on comparison with the results afforded by a standard compound like phenylbutazone at 33 mg./kg., via the oral route of administration.
The following oxyethyl oxicam final products of Examples 1B, 1C and 5, respectively, were tested for anti-inflammatory activity in rats, using the standard rat foot edema test, according to the general procedure described by C. A. Winter et al., as first reported in the Proceedings of the Society for Experimental Biology and Medicine, Vol. 111, p. 544 (1962).

[2] = compared with piroxicam at an equivalent dose level and other NSAI agents

Structure (SMILES) | solubility (physchem) | inhibition at 32 mg/kg [1] | oral absorption potential, comparison in words [2]
CC(C)Cc1ccc(C(C)C(=O)O)cc1 (centres unmarked) [Ibuprofen] | 0.3 mg/mL (≈ 1.45 mM) | – | –
COc1ccc2c(c1)c(CC(=O)O)c(C)n2C(=O)c1ccc(Cl)cc1 [Indomethacin] | 0.7 mg/mL (≈ 1.96 mM) | – | –
CN1C(C(=O)Nc2ccccn2)=C(O)c2ccccc2S1(=O)=O [Piroxicam, 4-hydroxy-2-methyl-N-(2-pyridinyl)-2H-1,2-benzothiazine-3-carboxamide 1,1-dioxide] | 26.5 mg/mL (≈ 80 mM) | – | –
CN1C(C(=O)Nc2ccccn2)=C(OCCO)c2ccccc2S1(=O)=O [Product of Example 1B, 4-(2-hydroxyethyloxy)-2-methyl-N-(2-pyridinyl)-2H-1,2-benzothiazine-3-carboxamide 1,1-dioxide] | 470 mg/mL (≈ 1250 mM) | 48% | highest oral absorption potential seen in the series of compounds tested
CN1C(C(=O)Nc2cccc[n+]2CCO)=C([O-])c2ccccc2S1(=O)=O [Product of Example 1C, N-[1-(2-hydroxyethyl)-2-pyridinium]-2-methyl-2H-1,2-benzothiazine-3-carboxamide 1,1-dioxide 4-enolate] | – | 16% | –
Cc1cccc(NC(=O)C2=C(OCCO)c3ccccc3S(=O)(=O)N2C)n1 [Product of Example 5, 4-(2-hydroxyethyloxy)-2-methyl-N-(6-methyl-2-pyridinyl)-2H-1,2-benzothiazine-3-carboxamide 1,1-dioxide] | – | 13% | –

Reference: US5081118A, “Benzothiazine dioxide derivatives” (Pfizer Inc., priority 1990, dated 1992)
